Reference: EP4768484A1, “HETEROCYCLIC FUSED RING COMPOUND, AND COMPOSITION AND USE THEREOF” (Shenzhen TargetRx, Inc., priority 2023, dated 2025)

How the values were obtained:
Format in all cases: cell-based
K562 cells = test: Cell growth inhibitory activity assay (CellTiter-Glo), K562 cells; details: Homo sapiens, 72 h, CTG cell viability
Method in brief: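 Growth inhibition of human K562 cells, sourced from Nanjing Kebai (CBP60529), was assessed with Promega's CellTiter-Glo kit, which measures viability through ATP quantification. Log-phase cells went into the inner wells of 96-well plates, with PBS in edge wells, incubated overnight at 37 °C and 5% CO2, then exposed to serially diluted compound for 72 h.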

Ba/F3 BCR-ABL1 WT = target: T1, Ba/F3 BCR-ABL1 WT (Homo sapiens, UniProt P00519+P11274); test: Cell growth inhibitory activity assay (CellTiter-Glo), Ba/F3 BCR-ABL1 WT cells; details: 72 h, CTG cell viability
T1 construct: BCR (N-terminal fusion partner of the oncoprotein); expressed in transfected cells; host or cells: Ba/F3 (lentiviral transduction, monoclonal line)
Method in brief: (§1)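 Ba/F3 lines stably transduced by lentivirus with WT or mutant BCR-ABL1, alongside untransduced parental Ba/F3, were seeded and incubated overnight at 37 °C, 5% CO2, then exposed to serially diluted compound for 72 h. Viability was read as ATP by CellTiter-Glo luminescence against a day-of-dosing T0 plate; IC50 from four-parameter nonlinear fit.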

Ba/F3 BCR-ABL1 T315I = target: T2, Ba/F3 BCR-ABL1 T315I (Homo sapiens, UniProt P00519+P11274, T315I); test: Cell growth inhibitory activity assay (CellTiter-Glo), Ba/F3 BCR-ABL1 T315I cells; details: 72 h, CTG cell viability
T2 construct: BCR (N-terminal fusion partner of the oncoprotein); expressed in transfected cells; host or cells: Ba/F3 (lentiviral transduction, monoclonal line)
Method in brief: as §1

Ba/F3 parental cells = test: Cell growth inhibitory activity assay (CellTiter-Glo), Ba/F3 parental cells; details: Mus musculus, BaF3, 72 h, CTG cell viability, read-out: IC50 Ba/F3 BCR-ABL1 Parental
Method in brief: as §1

[1] = target: T3, Ba/F3 BCR-ABL1 Y253H/E255K (Homo sapiens, UniProt P00519+P11274, E255K/Y253H); test: Cell growth inhibitory activity assay (CellTiter-Glo), Ba/F3 BCR-ABL1 Y253H/E255K cells; details: 72 h, CTG cell viability
T3 construct: BCR (N-terminal fusion partner of the oncoprotein); expressed in transfected cells; host or cells: Ba/F3 (lentiviral transduction, monoclonal line)
Description: (§2) In this assay, the Celltiter-Glo (CTG) kit provided by Promega was used, and it is a homogeneous cell viability assay method. The cell viability of cultured cells was measured by quantifying ATP. K562 cells were purchased from Nanjing Kebai, product number CBP60529; Ba/F3 parental cells were purchased from RIKEN BRC, product number RCB0805; other cells containing BCR-ABL1 WT, BCR-ABL1 T315I, BCR-ABL1 T315M, BCR-ABL1 Y253H/E255K, BCR-ABL1 E255V/T3151, BCR-ABL1 A424T, BCR-ABL1 A337V, BCR-ABL1 P465S, BCR-ABL1 V468F, and BCR-ABL1 I502L were all monoclonal engineered cell lines obtained by transducting Ba/F3 parental cells with the lentivirus plasmids containing WT or corresponding mutated BCR-ABL1.
(§3) The steps of cell viability assay are as follows: • a) Cells in logarithmic growth phase were collected. Cell suspension was prepared and the cells were counted. Concentration of the cells was calculated. • b) The cell suspension was diluted to the required concentration and then added to the middle wells of a 96-well plate, and PBS was added to the edge wells. The wells with no cells and only culture medium were used as blank controls. • c) In addition to the cell plate used for compound analysis, another 96-well plate was prepared as a T0 plate, and 3-6 blank wells and 3-6 cell wells were added. The next day, CTG was used to test the cell viability as the T0 viability value of the cells. • d) The cell plate was incubated at 37 °C in a 5% CO2 incubator overnight. • e) The next day, each concentration of a compound subjected to a gradient dilution was added, and the cell plate was incubated at 37 °C in a 5% CO2 incubator for 72 h. The wells with no compound and only 0.5% DMSO were used as positive controls for cell growth. • f) CTG reagent (CellTiter-Glo kit) was added according to the manufacturer's instructions to test the cell viability value. • g) The plate was read using Biotek cytation3.0 microplate reader and the data were exported. • h) IC50 was calculated using GraphPad Prism 7.0 software.
(§4) The IC50 (half-maximal inhibitory concentration) of the compound was obtained using the following nonlinear fitting formula: Y = Bottom + (Top−Bottom)/(1+10^(∧)((LogIC50−X)*HillSlope)) [formula] • X: Log value of the compound concentration • Y: Inhibition rate (% inhibition) • Top: Maximum response • Bottom: Baseline response • HillSlope: Slope of the curve
(§5) The formula for calculating cell inhibition rate (inhibition rate %) was: [formula]

Ba/F3 BCR-ABL1 T315M = target: T4, Ba/F3 BCR-ABL1 T315M (Homo sapiens, UniProt P00519+P11274, T315M); test: Cell growth inhibitory activity assay (CellTiter-Glo), Ba/F3 BCR-ABL1 T315M cells; details: 72 h, CTG cell viability
T4 construct: BCR (N-terminal fusion partner of the oncoprotein); expressed in transfected cells; host or cells: Ba/F3 (lentiviral transduction, monoclonal line)
Description: as §2, §3, §4, §5

[2] = target: T5, Ba/F3 BCR-ABL1 E255V/T315I (Homo sapiens, UniProt P00519+P11274, E255V/T315I); test: Cell growth inhibitory activity assay (CellTiter-Glo), Ba/F3 BCR-ABL1 E255V/T315I cells; details: 72 h, CTG cell viability
T5 construct: BCR (N-terminal fusion partner of the oncoprotein); expressed in transfected cells; host or cells: Ba/F3 (lentiviral transduction, monoclonal line)
Description: as §2, §3, §4, §5

| SMILES | IC50 (K562 cells) [nM] | IC50 (Ba/F3 BCR-ABL1 WT) [nM] | IC50 (Ba/F3 BCR-ABL1 T315I) [nM] | IC50 (Ba/F3 parental cells) [nM] | IC50 [1] [nM] | IC50 (Ba/F3 BCR-ABL1 T315M) [nM] | IC50 [2] [nM] |
| --- | --- | --- | --- | --- | --- | --- | --- |
| C[C@@H]1COCc2nc3cc(C(=O)Nc4ccc(OC(F)(F)Cl)cc4)cc(-c4cnc5c(c4)-c4nn(-c6ccncn6)cc4C5)c3n21 [T-67, (R)-N-(4-(chlorodifluoromethoxy)phenyl)-4-methyl-6-(2-(pyrimidin-4-yl)-2,4-dihydropyrazolo[3',4':3,4]cyclopenta[1,2-b]pyridin-7-yl)-3,4-dihydro-1H-benzo[4,5]imidazo[2,1-c][1,4]oxazine-8-carboxamide] | ≤ 5 | ≤ 5 | ≤ 5 | > 1000 | ≤ 5 |  |  |
| C[C@@H]1CCS(=O)(=O)c2nc3cc(C(=O)Nc4ccc(OC(F)(F)Cl)cc4)cc(-c4cnc5c(c4)C(=O)N(C)C5)c3n21 [T-28, (R)-N-(4-(chlorodifluoromethoxy)phenyl)-4-methyl-6-(6-methyl-5-oxo-6,7-dihydro-5H-pyrrolo[3,4-b]pyridin-3-yl)-3,4-dihydro-2H-benzo[4,5]imidazo[2,1-b][1,3]thiazine-8-carboxamide 1,1-dioxide] | ≤ 5 | 5 to 50 | 5 to 50 | > 1000 |  | 50 to 1000 |  |
| C[C@@H]1CN(C)CCc2nc3cc(C(=O)Nc4ccc(OC(F)(F)Cl)cc4)cc(-c4cnc5c(c4)C(=O)N(C4CC4)C5)c3n21 [T-37, (R)-N-(4-(chlorodifluoromethoxy)phenyl)-10-(6-cyclopropyl-5-oxo-6,7-dihydro-5H-pyrrolo[3,4-b]pyridin-3-yl)-1,3-dimethyl-2,3,4,5-tetrahydro-1H-benzo[4,5]imidazo[1,2-d][1,4]diazepine-8-carboxamide] | 50 to 1000 | > 1000 | > 1000 | > 1000 |  | > 1000 |  |
| C[C@@H]1COCc2nc3cc(C(=O)Nc4ccc(OC(F)(F)Cl)cc4)cc(-c4cnc5c(c4)-c4nn(-c6ncc(C#N)cn6)cc4C5)c3n21 [T-78, (R)-N-(4-(chlorodifluoromethoxy)phenyl)-6-(2-(5-cyanopyrimidin-2-yl)-2,4-dihydropyrazolo[3',4':3,4]cyclopenta[1,2-b]pyridin-7-yl)-4-methyl-3,4-dihydro-1H-benzo[4,5]imidazo[2,1-c][1,4]oxazine-8-carboxamide] | ≤ 5 | ≤ 5 | ≤ 5 | > 1000 | ≤ 5 |  | ≤ 5 |
| Cc1ccnc(-n2cc3c(n2)-c2cc(-c4cc(C(=O)Nc5ccc(OC(F)(F)Cl)cc5)cc5nc6n(c45)[C@H](C)COC6)cnc2C3)n1 [T-73, (R)-N-(4-(chlorodifluoromethoxy)phenyl)-4-methyl-6-(2-(4-methylpyrimidin-2-yl)-2,4-dihydropyrazolo[3',4':3,4]cyclopenta[1,2-b]pyridin-7-yl)-3,4-dihydro-1H-benzo[4,5]imidazo[2,1-c][1,4]oxazine-8-carboxamide] | ≤ 5 | ≤ 5 | ≤ 5 | > 1000 |  | ≤ 5 |  |
| C[C@@H]1CCC(F)c2nc3cc(C(=O)Nc4ccc(OC(F)(F)Cl)cc4)cc(-c4cnc5c(c4)C(=O)N(C4CC4)C5)c3n21 (stereo partly drawn) [T-35] | ≤ 5 | ≤ 5 | 5 to 50 | > 1000 |  | 5 to 50 |  |

The next lines start with results.

| IC50 (K562 cells) [nM] | SMILES | IC50 (Ba/F3 BCR-ABL1 WT) [nM] | IC50 (Ba/F3 BCR-ABL1 T315I) [nM] | IC50 (Ba/F3 parental cells) [nM] | IC50 [1] [nM] | IC50 (Ba/F3 BCR-ABL1 T315M) [nM] | IC50 [2] [nM] |
| --- | --- | --- | --- | --- | --- | --- | --- |
| ≤ 5 | CC(=O)n1cc2c(n1)-c1cc(-c3cc(C(=O)Nc4ccc(OC(F)(F)Cl)cc4)cc4nc5n(c34)[C@H](C)COC5)cnc1C2 [T-43, (R)-6-(2-acetyl-2,4-dihydropyrazolo[3',4':3,4]cyclopenta[1,2-b]pyridin-7-yl)-N-(4-(chlorodifluoromethoxy)phenyl)-4-methyl-3,4-dihydro-1H-benzo[4,5]imidazo[2,1-c][1,4]oxazine-8-carboxamide] | ≤ 5 | ≤ 5 | > 1000 |  | 50 to 1000 |  |
| 50 to 1000 | CC(=O)N[C@H]1CCC2c3cc(C(=O)Nc4ccc(OC(F)(F)Cl)cc4)cc(-c4cnc5c(c4)C(=O)N(C)C5)c3N(C(C)C)C21 (stereo partly drawn) [T-11-A, (3S)-3-acetamido-N-(4-(chlorodifluoromethoxy)phenyl)-4-isopropyl-5-(6-methyl-5-oxo-6,7-dihydro-5H-pyrrolo[3,4-b]pyridin-3-yl)-1,2,3,3a,4,8b-hexahydrocyclopenta[b]indole-7-carboxamide] | 50 to 1000 | > 1000 | > 1000 |  | > 1000 |  |
| ≤ 5 | CC(=O)N[C@@H]1CCC2c3cc(C(=O)Nc4ccc(OC(F)(F)Cl)cc4)cc(-c4cnccn4)c3N(C(C)C)C21 (stereo partly drawn) [T-12-B, (3R)-3-acetamido-N-(4-(chlorodifluoromethoxy)phenyl)-4-isopropyl-5-(pyrazin-2-yl)-1,2,3,3a,4,8b-hexahvdrocyclopentalblindole-7-carboxamide] | ≤ 5 | 5 to 50 | > 1000 |  | 50 to 1000 |  |
| ≤ 5 | C[C@@H]1CCC(O)c2nc3cc(C(=O)Nc4ccc(OC(F)(F)Cl)cc4)cc(-c4cnc5c(c4)C(=O)N(C4CC4)C5)c3n21 (stereo partly drawn) [T-32, (1R)-N-(4-(chlorodifluoromethoxy)phenyl)-9-(6-cyclopropyl-5-oxo-6,7-dihydro-5H-pyrrolo[3,4-b]pyridin-3-yl)-4-hydroxy-1-methyl-1,2,3,4-tetrahydrobenzo[4,5]imidazo[1,2-a]pyridine-7-carboxamide] | ≤ 5 | 50 to 1000 | > 1000 |  | 50 to 1000 |  |
| ≤ 5 | C[C@@H]1CCOCc2nc3cc(C(=O)Nc4ccc(OC(F)(F)Cl)cc4)cc(-c4cnc5c(c4)C(=O)N(C)C5)c3n21 [T-39, (R)-N-(4-(chlorodifluoromethoxy)phenyl)-5-methyl-7-(6-methyl-5-oxo-6,7-dihydro-5H-pyrrolo[3,4-b]pyridin-3-yl)-4,5-dihydro-1H,3H-benzo[4,5]imidazo[2,1-c][1,4]oxazepine-9-carboxamide] | ≤ 5 | 50 to 1000 | > 1000 |  | > 1000 |  |
| ≤ 5 | CC(=O)N[C@@H]1CCC2c3cc(C(=O)Nc4ccc(OC(F)(F)Cl)cc4)cc(-c4cnc5c(c4)C(=O)N(C)C5)c3N(C(C)C)C21 (stereo partly drawn) [T-11-B, (3R)-3-acetamido-N-(4-(chlorodifluoromethoxy)phenyl)-4-isopropyl-5-(6-methyl-5-oxo-6,7-dihydro-5H-pyrrolo[3,4-b]pyridin-3-yl)-1,2,3,3a,4,8b-hexahydrocyclopenta[b]indole-7-carboxamide] | ≤ 5 | 5 to 50 | > 1000 |  | 50 to 1000 |  |
| ≤ 5 | C[C@@H]1COCc2nc3cc(C(=O)Nc4ccc(OC(F)(F)Cl)cc4)cc(-c4cnc5c(c4)C(=O)NC5)c3n21 [T-30, (R)-N-(4-(chlorodifluoromethoxy)phenyl)-4-methyl-6-(5-oxo-6,7-dihydro-5H-pyrrolo[3,4-b]pyridin-3-yl)-3,4-dihydro-1H-benzo[4,5]imidazo[2,1-c][1,4]oxazine-8-carboxamide] | ≤ 5 | 50 to 1000 | > 1000 |  | 5 to 50 |  |
